Test results as given in patent US20230172923A1, “METHODS OF TREATING CYTOKINE-RELATED ADVERSE EVENTS” (BRISTOL-MYERS SQUIBB COMPANY, priority 2020, published 2023).
Entries after “also recorded” stand apart in the source; their conditions may differ.

Columns and labels:
Assay type in all cases: cell-based, human
IL-6 [1] = test: LPS-induced IL-6 secretion from monocytes with nigericin (MSD); details: overnight 1 nM, 10 nM or 100 nM Compound 1; LPS 4 hours, then 5 µg/ml nigericin 1 hour
Protocol: Monocytes from healthy volunteers were seeded at a concentration of 1×10^6 cells/ml and treated with the indicated concentration of Compound 1 overnight. The next morning, the monocytes were incubated with the indicated concentration of LPS for 4 hours, and then stimulation with 5 ug/ml of nigericin for 1 hour, before IL-6 levels in the supernatant were assessed using an MSD assay.
Monocytes from two healthy human donors were isolated as in Example 1. Here isolated monocytes (1×10^6 cells/ml) were treated with various concentrations of Compound 1 (1 nM, 10 nM, or 100 nM), or control DMSO (0.001%), overnight (~17 hours) before stimulation with various concentrations of LPS.
After 4 hours, 5 µg/ml of nigericin was added to activate the inflammasome for 1 hour, supernatants were harvested, and MSD analysis was performed to quantify secreted IL-6.

TNF-alpha = test: CC-93269-induced TNF-alpha secretion, co-culture of PBMCs and K562-BCMA cells (MSD); details: Compound 1 pre-treatment; 24 hours
Protocol: (§1) Co-cultures of PBMCs, target K562-BCMA cells and CC-93269 were prepared as for FIG. 9. At 6-, 24- and 48-hours post-incubation, the cell culture media was collected and levels of TNF-alpha (FIG. 12A) and IL-2 (FIG. 12B) in the supernatant were assessed using an MSD assay. ULOQ = Upper limit of quantification.
(§2) Fresh PBMCs were isolated from the blood (buffy coat) of healthy human volunteers by Ficoll based cell separation. The percentage of CD3+ T-cells (total) in the PBMCs was quantified by flow cytometry. The isolated PBMCs were seeded in 12-well plates at a concentration of 1.5×10^6 cells/ml and treated with 1 nM Compound 1 (CC-92480), 1000 nM lenalidomide, 100 nM pomalidomide, 10 nM iberdomide, or control DMSO overnight (~17 hours).
(§3) After overnight incubation, target K562-BCMA cells (overexpress surface BCMA at a very high level) or control K562-MCB cells (no BCMA expression) were added to the wells at a ratio of 5:1, T-cells to target cells. K562-BCMA and K562-MCB are an isogenic pair that are derived from a chronic myelogenous leukemia (CML,) cell line. CC-93269 was added to the co-culture at various concentrations and incubated. CC-93269 is an anti-BCMA anti-CD3 bispecific T cell-engaging antibody and is also referred to herein as 42-TCBcv.

IL-2 = test: CC-93269-induced IL-2 secretion, co-culture of PBMCs and K562-BCMA cells (MSD); details: Compound 1 pre-treatment; 24 hours
Protocol: as §1, §2, §3

IL1-beta = test: CC-93269-induced IL1-beta secretion, co-culture of PBMCs and K562-BCMA cells (MSD)
Protocol: Co-cultures of PBMCs, target K562-BCMA cells and CC-93269 were prepared as for FIG. 9. At 6-, 24- and 48-hours post-incubation, the cell culture media was collected and levels of IL1-beta in the supernatant were assessed using an MSD assay (FIG. 13A). […] The circles indicate independent donors and the bars indicate median values; not all donors are shown because a data cut-off for the bottom ~10% of IL1-beta concentrations, below 100 pg/ml, was used to eliminate small changes that could skew the result and to increase confidence in results.
(§4) Fresh PBMCs were isolated from the blood (buffy coat) of healthy human volunteers by Ficoll based cell separation. The percentage of CD3+ T-cells (total) in the PBMCs was quantified by flow cytometry. The isolated PBMCs were seeded in 12 well plates at a concentration of 1.5×10^6 cells/ml and treated with 1 nM Compound 1 (CC-92480) or control DMSO overnight (~17 hours). After overnight incubation, target K562-BCMA cells were added to the wells at a ratio of 5:1, T-cells to target cells, followed by incubation with CC-93269 at various concentrations. […]
(§5) At 6, 24 and 48 hours post-incubation, the cell culture media was collected from all samples, spun down at 300 g for 5 minutes to remove cells and the supernatant was subjected to cytokine analysis to quantify secreted levels of IL1-beta using an MSD assay.

IL-6 [2] = test: CC-93269-induced IL-6 secretion, co-culture of PBMCs and H929 multiple myeloma cells (MSD); details: 1 nM Compound 1 pre-treatment overnight, washed out; two donors
Protocol: Fresh PBMCs were isolated from healthy volunteers, the percentage of CD3+ T-cells (total) was quantified by flow cytometry, and the PBMCs were treated with 1 nM Compound 1 (CC-92480) or control DMSO overnight. The next morning, target H929 cells were added to the wells at a ratio of 5:1, T-cells to target cells, followed by addition of CC-93269 at indicated concentrations. At 6-, 24- and 48-hours post-incubation, the cell culture was collected and levels of IL-6 in the supernatant were assessed using an MSD assay.
as §4, with “of” for “of healthy”, “incubation, the cells were washed to remove CC-92480, before” for “incubation,”, “H929” for “K562-BCMA”, “cells.” for “cells, followed by incubation with CC-93269 at various concentrations.”
as §5, with “The co-culture was then incubated with CC-93269 at various concentrations. At” for “At”, “IL-6” for “IL1-beta”, “assay. […]” for “assay.”

For `N#Cc1ccc(N2CCN(Cc3ccc(COc4cccc5c4CN(C4CCC(=O)NC4=O)C5=O)cc3)CC2)c(F)c1` (stereo not drawn) [Compound 1, 4-(4-(4-(((2-(2,6-dioxopiperidin-3-yl)-1-oxoisoindolin-4-yl)oxy)methyl)benzyl)piperazin-l-yl)-3-fluorobenzonitrile], the “LPS-induced IL-6 secretion from monocytes” value (IL-6 [1]) was “diminished”, the “CC-93269-induced TNF-alpha secretion from PBMCs with K562 target cells” value (TNF-alpha) was “potentiates” and the “CC-93269-induced IL-2 secretion from PBMCs with K562 target cells” value (IL-2) was “potentiates”. The “secretion of IL1-beta associated with CC-93269 activity, PBMCs + K562-BCMA” value (IL1-beta; 1 nM Compound 1 pre-treatment overnight) was “diminished/attenuated; also recorded: suppressed”, the “median reduction in IL1-beta levels relative to DMSO control” value (IL1-beta; Compound 1 pre-treatment, 10 ng/ml CC-93269, 24 hours, PBMCs from 15 healthy donors) was “ten-fold” and the “secretion of IL-6 associated with CC-93269 activity, PBMCs + multiple myeloma cells (H929)” value (IL-6 [2]) was “diminished/attenuated”.
